Laboratory results reported in PubChem BioAssay AID248 (DTP/NCI, 2004).
Where “and” joins values, the source holds several entries; their conditions need not be identical. Equal values may be shown once. Toxic doses and inconclusive results are not listed. Rule as the data show it: active = T/C of 150% or more; inactive = T/C below 125%.

System: L1210 leukemia ip in BDF1 mice, survival T/C
Test: NCI In Vivo Anticancer Drug Screen. Data for tumor model L1210 Leukemia (intraperitoneal) in B6D2F1 (BDF1) mice
Settings: endpoint: mean survival time, higher = longer survival
Outline: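 Mice bearing the transplanted tumor received compound or vehicle. Survival of the treated group was divided by that of the vehicle-treated control group to give the ratio.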

[1] = dose: 100.0 mg/kg/injection, schedule: Q01DX001 (ip), vehicle: carboxymethylcellulose (CMC)
[2] = dose: 200.0 mg/kg/injection, schedule: Q01DX001 (ip), vehicle: carboxymethylcellulose (CMC)
[3] = dose: 400.0 mg/kg/injection, schedule: Q01DX001 (ip), vehicle: carboxymethylcellulose (CMC)

Measured: T/C

CC1NNC(=O)c2ccccc21 (centres undefined)
inactive: dose: 100.0 mg/kg/injection, schedule: Q01DX001 (ip), vehicle: saline 95 % of control | dose: 200.0 mg/kg/injection, schedule: Q01DX001 (ip), vehicle: saline 96 % of control | dose: 400.0 mg/kg/injection, schedule: Q01DX001 (ip), vehicle: saline 94 % of control

N#Cc1cc2c(N)[nH]nc2nc1N
inactive: dose: 25.0 mg/kg/injection, schedule: Q01DX009 (ip), vehicle: Klucel (hydroxypropylcellulose) (HPC) 89 % of control | dose: 50.0 mg/kg/injection, schedule: Q01DX009 (ip), vehicle: Klucel (hydroxypropylcellulose) (HPC) 93 % of control | dose: 100.0 mg/kg/injection, schedule: Q01DX009 (ip), vehicle: Klucel (hydroxypropylcellulose) (HPC) 86 % of control and 90 % of control | dose: 100.0 mg/kg/injection, schedule: Q04DX003 (ip), vehicle: Klucel (hydroxypropylcellulose) (HPC) 98 % of control | dose: 200.0 mg/kg/injection, schedule: Q04DX003 (ip), vehicle: Klucel (hydroxypropylcellulose) (HPC) 95 % of control | dose: 400.0 mg/kg/injection, schedule: Q04DX003 (ip), vehicle: Klucel (hydroxypropylcellulose) (HPC) 101 % of control

S=P(NCCCCCCCNP(=S)(N1CC1)N1CC1)(N1CC1)N1CC1
inactive: [1] 106 % of control | [2] 98 % of control | [3] 104 % of control

CCN1c2ccccc2C(Cl)(c2ccc(N(C)C)cc2)c2ccccc21
inactive: dose: 1.8 mg/kg/injection, schedule: Q03HX024 (ip), vehicle: saline 96 % of control | dose: 2.6 mg/kg/injection, schedule: Q03HX024 (ip), vehicle: saline 88 % of control | dose: 3.9 mg/kg/injection, schedule: Q03HX024 (ip), vehicle: saline 95 % of control | dose: 5.9 mg/kg/injection, schedule: Q03HX024 (ip), vehicle: saline 101 % of control | dose: 6.25 mg/kg/injection, schedule: Q01DX009 (ip), vehicle: saline 93 % of control | dose: 6.25 mg/kg/injection, schedule: Q04DX003 (ip), vehicle: saline 95 % of control | dose: 8.8 mg/kg/injection, schedule: Q01DX009 (ip), vehicle: saline 101 % of control | dose: 8.8 mg/kg/injection, schedule: Q03HX024 (ip), vehicle: saline 101 % of control and 104 % of control | dose: 12.5 mg/kg/injection, schedule: Q01DX001 (ip), vehicle: saline 101 % of control | dose: 12.5 mg/kg/injection, schedule: Q01DX009 (ip), vehicle: saline 115 % of control | dose: 12.5 mg/kg/injection, schedule: Q04DX003 (ip), vehicle: saline 108 % of control | dose: 13.0 mg/kg/injection, schedule: Q01DX009 (ip), vehicle: saline 105 % of control | dose: 18.0 mg/kg/injection, schedule: Q01DX001 (ip), vehicle: saline 103 % of control | dose: 18.0 mg/kg/injection, schedule: Q04DX003 (ip), vehicle: saline 104 % of control | dose: 20.0 mg/kg/injection, schedule: Q01DX009 (ip), vehicle: saline 106 % of control | dose: 25.0 mg/kg/injection, schedule: Q01DX001 (ip), vehicle: saline 111 % of control | dose: 25.0 mg/kg/injection, schedule: Q01DX009 (ip), vehicle: saline 112 % of control | dose: 25.0 mg/kg/injection, schedule: Q04DX003 (ip), vehicle: saline 104 % of control | dose: 26.0 mg/kg/injection, schedule: Q01DX001 (ip), vehicle: saline 103 % of control | dose: 26.0 mg/kg/injection, schedule: Q04DX003 (ip), vehicle: saline 102 % of control | dose: 30.0 mg/kg/injection, schedule: Q01DX009 (ip), vehicle: saline 98 % of control | dose: 39.0 mg/kg/injection, schedule: Q01DX001 (ip), vehicle: saline 104 % of control | dose: 39.0 mg/kg/injection, schedule: Q04DX003 (ip), vehicle: saline 103 % of control

O=C(Sc1ccccc1)c1ccccc1
inactive: dose: 50.0 mg/kg/injection, schedule: Q01DX001 (ip), vehicle: carboxymethylcellulose (CMC) 105 % of control | [1] 105 % of control | [2] 108 % of control | [3] 100 % of control

COc1cccnc1/C=N/NC(N)=S
active: dose: 12.5 mg/kg/injection, schedule: Q01DX009 (ip), vehicle: saline with Tween-80 150 % of control

COC(=O)N1C2C=CC(C2)N1C(=O)OC
inactive: dose: 50.0 mg/kg/injection, schedule: Q01DX009 (ip), vehicle: DMSO 96 % of control | dose: 100.0 mg/kg/injection, schedule: Q01DX009 (ip), vehicle: DMSO 93 % of control | dose: 100.0 mg/kg/injection, schedule: Q04DX003 (ip), vehicle: DMSO 97 % of control | dose: 200.0 mg/kg/injection, schedule: Q04DX003 (ip), vehicle: DMSO 95 % of control
